Data from patent publication US10316035B2, “Triazolopyridine inhibitors of myeloperoxidase” (BRISTOL-MYERS SQUIBB COMPANY, priority 2015, dated 2019).

What follows are compounds tested against T1, myeloperoxidase (MPO) (Homo sapiens, UniProt P05164) (assay: MPO peroxidation assay (Amplex Red assay)). Conditions: not given.
T1 sequence (P05164 49-745): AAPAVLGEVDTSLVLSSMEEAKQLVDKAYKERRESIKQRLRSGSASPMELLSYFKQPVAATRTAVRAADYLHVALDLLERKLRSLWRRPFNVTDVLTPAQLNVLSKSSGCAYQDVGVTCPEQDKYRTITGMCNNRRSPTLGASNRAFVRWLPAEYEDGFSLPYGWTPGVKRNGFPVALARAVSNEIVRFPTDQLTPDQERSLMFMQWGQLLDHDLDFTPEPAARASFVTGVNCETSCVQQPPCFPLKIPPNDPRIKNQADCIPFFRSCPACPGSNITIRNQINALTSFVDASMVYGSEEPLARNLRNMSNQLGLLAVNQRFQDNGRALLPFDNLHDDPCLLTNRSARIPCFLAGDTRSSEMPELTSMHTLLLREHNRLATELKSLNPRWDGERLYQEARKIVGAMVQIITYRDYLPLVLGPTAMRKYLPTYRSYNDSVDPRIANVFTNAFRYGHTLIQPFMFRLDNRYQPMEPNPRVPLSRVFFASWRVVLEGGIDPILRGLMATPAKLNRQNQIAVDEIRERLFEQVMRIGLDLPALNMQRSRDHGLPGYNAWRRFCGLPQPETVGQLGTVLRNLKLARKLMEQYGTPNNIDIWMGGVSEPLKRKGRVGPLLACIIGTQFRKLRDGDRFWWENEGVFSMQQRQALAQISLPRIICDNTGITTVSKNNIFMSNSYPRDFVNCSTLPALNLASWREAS
Format: biochemical
Summary of the method: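 MPO (200 pM) with 40 nM H2O2 was preincubated 10 min at room temperature with inhibitor in 100 mM KPi pH 7.4. A mix of Amplex Red (200 μM) and H2O2 (10 mM) was then added and resorufin fluorescence read kinetically for 15 min. Slopes over 180–540 s gave % inhibition and IC50 via a four-parameter Hill fit.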

Row | IC50 | Compound
1 | 1 to 100 nM | Nc1cc(OCc2ccc(Cl)cc2)c2nn[nH]c2n1 [Example 11, 7-(4-Chlorobenzyloxy)-3H-[1,2,3]triazolo[4,5-b]pyridin-5-amine]

Same assay, conditions: MPO peroxidation, potency range class; read-out: Amplex Red IC50

Row | Compound | IC50
2 | Cc1cn(-c2cccc(COc3cc(N)nc4[nH]nnc34)c2)cn1 [Example 84, 7-(3-(4-Methyl-1H-imidazol-1-yl)benzyloxy)-3H-[1,2,3]triazolo[4,5-b]pyridin-5-amine] | 101 to 999 nM
3 | Nc1cc(OCC2CCCCC2)c2nn[nH]c2n1 [Example 132, 7-(Cyclohexylmethoxy)-3H-[1,2,3]triazolo[4,5-b]pyridin-5-amine] | 101 to 999 nM
4 | Nc1cc(OCc2ccc(C(=O)NCc3cccnc3)cc2Cl)c2nn[nH]c2n1 [Example 219, 4-((5-amino-3H-[1,2,3]triazolo[4,5-b]pyridin-7-yloxy)methyl)-3-chloro-N-(pyridin-3-ylmethyl)benzamide] | 1 to 100 nM
5 | Nc1cc(OCc2cccc(-c3ccc(C(=O)Nc4ccccc4)cc3)c2)c2nn[nH]c2n1 [Example 104, 3′-((5-Amino-3H-[1,2,3]triazolo[4,5-b]pyridin-7-yloxy)methyl)-N-phenylbiphenyl-4-carboxamide] | 101 to 999 nM
6 | Nc1cc(OCc2cc(C(=O)NCC3CC3)ccc2F)c2nn[nH]c2n1 [Example 162, 3-((5-amino-3H-[1,2,3]triazolo[4,5-b]pyridin-7-yloxy)methyl)-N-(cyclopropylmethyl)-4-fluorobenzamide] | 1 to 100 nM
7 | Nc1cc(OCc2cc(C(=O)Nc3nnc(C(F)(F)F)s3)ccc2F)c2nn[nH]c2n1 [Example 155, 3-((5-amino-3H-[1,2,3]triazolo[4,5-b]pyridin-7-yloxy)methyl)-4-fluoro-N-(5-(trifluoromethyl)-1,3,4-thiadiazol-2-yl)benzamide] | 101 to 999 nM
8 | CNC(=O)CNC(=O)c1ccc(Cl)c(COc2cc(N)nc3[nH]nnc23)c1 [Example 187, 3-((5-amino-3H-[1,2,3]triazolo [4,5-b]pyridin-7-yloxy)methyl)-4-chloro-N-(2-(methylamino)-2-oxoethyl)benzamide] | 101 to 999 nM
9 | Nc1cc(OCc2cccc(-c3cccc(F)c3)c2F)c2nn[nH]c2n1 [Example 72, 7-((2,3′-Difluorobiphenyl-3-yl)methoxy)-3H-[1,2,3]triazolo[4,5-b]pyridin-5-amine] | 1 to 100 nM
10 | COC(=O)c1ccc(F)c(COc2cc(N)nc3[nH]nnc23)c1 [Example 41, Methyl 3-((5-amino-3H-[1,2,3]triazolo[4,5-b]pyridin-7-yloxy)methyl)-4-fluorobenzoate] | 1 to 100 nM
11 | Nc1cc(OCc2cc(C(=O)NCc3ccccc3)ccc2F)c2nn[nH]c2n1 [Example 47, 3-((5-Amino-3H-[1,2,3]triazolo[4,5-b]pyridin-7-yloxy)methyl)-N-benzyl-4-fluorobenzamide] | 1 to 100 nM
12 | CN(C)Cc1cn(-c2ccc(COc3cc(N)nc4[nH]nnc34)c(OC(F)(F)F)c2)cn1 [Example 266, 7-((4-(4-((dimethylamino)methyl)-1H-imidazol-1-yl)-2-(trifluoromethoxy)benzyl)oxy)-3H-[1,2,3]triazolo[4,5-b]pyridin-5-amine] | 101 to 999 nM
13 | Nc1cc(OCc2cc(C(=O)NCc3ccc[nH]c3=O)ccc2Cl)c2nn[nH]c2n1 [Example 192, 3-((5-amino-3H-[1,2,3]triazolo [4,5-b]pyridin-7-yloxy)methyl)-4-chloro-N-((2-oxo-1,2-dihydropyridin-3-yl)methyl) benzamide] | 1 to 100 nM
14 | Nc1cc(OCc2cccc(-n3cncn3)c2)c2nn[nH]c2n1 [Example 3, 7-(3-(1H-1,2,4-Triazol-1-yl)benzyloxy)-3H-[1,2,3]triazolo[4,5-b]pyridin-5-amine] | 1 to 100 nM
15 | N#Cc1cccc(-c2ccc(COc3cc(N)nc4[nH]nnc34)cc2)c1 [Example 110, 4′-((5-Amino-3H-[1,2,3]triazolo[4,5-b]pyridin-7-yloxy)methyl)biphenyl-3-carbonitrile] | 1000 to 10000 nM
16 | CCC(F)(F)C(Oc1cc(N)nc2[nH]nnc12)c1ccccc1 (single isomer, unassigned) [Example 137, 7-(2,2-Difluoro-1-phenylbutoxy)-3H-[1,2,3]triazolo[4,5-b]pyridin-5-amine] | 1 to 100 nM
17 | Nc1cc(OCc2cc(C(=O)Nc3cccc(Cl)c3)ccc2F)c2nn[nH]c2n1 [Example 49, 3-((5-Amino-3H-[1,2,3]triazolo[4,5-b]pyridin-7-yloxy)methyl)-N-(3-chlorophenyl)-4-fluorobenzamide] | 1 to 100 nM
18 | Nc1cc(OCc2cc(OC(F)(F)F)ccc2F)c2nn[nH]c2n1 [Example 27, 7-(2-Fluoro-5-(trifluoromethoxy)benzyloxy)-3H-[1,2,3]triazolo[4,5-b]pyridin-5-amine] | 1 to 100 nM
19 | Nc1cc(OCc2ccc(F)cc2F)c2nn[nH]c2n1 [Example 130, 7-((2,4-Difluorobenzyl)oxy)-3H-[1,2,3]triazolo[4,5-b]pyridin-5-amine] | 1 to 100 nM
20 | Nc1cc(OCc2ccc(-c3cccc(C(F)(F)F)c3)cc2)c2nn[nH]c2n1 [Example 120, 7-((3′-(Trifluoromethyl)biphenyl-4-yl)methoxy)-3H-[1,2,3]triazolo[4,5-b]pyridin-5-amine] | 101 to 999 nM
21 | Nc1cc(OCc2cc(C(=O)NCC(F)(F)F)ccc2Cl)c2nn[nH]c2n1 [Example 190, 3-((5-amino-3H-[1,2,3]triazolo [4,5-b]pyridin-7-yloxy)methyl)-4-chloro-N-(2,2,2-trifluoroethyl) benzamide] | 1 to 100 nM
22 | Nc1cc(OCc2cc(-c3cccc(F)c3)ccc2F)c2nn[nH]c2n1 [Example 71, 7-((3′,4-Difluorobiphenyl-3-yl)methoxy)-3H-[1,2,3]triazolo[4,5-b]pyridin-5-amine] | 1 to 100 nM
23 | Nc1cc(OCc2ccc(-n3ccnc3)cc2OC(F)(F)F)c2nn[nH]c2n1 [Example 244, 7-((4-(1H-Imidazol-1-yl)-2-(trifluoromethoxy)benzyl)oxy)-3H-[1,2,3]triazolo[4,5-b]pyridin-5-amine] | 1 to 100 nM
24 | COc1c(F)cccc1-c1cccc(COc2cc(N)nc3[nH]nnc23)c1 [Example 115, 7-((3′-Fluoro-2′-methoxybiphenyl-3-yl)methoxy)-3H-[1,2,3]triazolo[4,5-b]pyridin-5-amine] | 1 to 100 nM

Next, values leading:

Row | IC50 | Compound
25 | 1 to 100 nM | Cc1nccn1-c1ccc(COc2cc(N)nc3[nH]nnc23)c(OC(F)(F)F)c1 [Example 268, 7-((4-(2-methyl-1H-imidazol-1-yl)-2-(trifluoromethoxy)benzyl)oxy)-3H-[1,2,3] triazolo[4,5-b]pyridin-5-amine]
26 | 1 to 100 nM | CS(=O)(=O)c1cncc(-c2ccc(COc3cc(N)nc4[nH]nnc34)c(C#N)c2)c1 [Example 322, 2-(((5-amino-3H-[1,2,3]triazolo[4,5-b]pyridin-7-yl)oxy)methyl)-5-(5-(methylsulfonyl)pyridin-3-yl)benzonitrile]
27 | 1 to 100 nM | COc1ccc(-c2ccc(COc3cc(N)nc4[nH]nnc34)c(OC(F)(F)F)c2)cn1 [Example 290, 7-((4-(6-methoxypyridin-3-yl)-2-(trifluoromethoxy)benzyl)oxy)-3H-[1,2,3] triazolo[4,5-b]pyridin-5-amine]
28 | 1 to 100 nM | COc1ccc(-c2cc(F)c(COc3cc(N)nc4[nH]nnc34)c(F)c2)cn1 [Example 333, 7-((2,6-difluoro-4-(6-methoxypyridin-3-yl)benzyl)oxy)-3H-[1,2,3]triazolo[4,5-b] pyridin-5-amine]
29 | 1 to 100 nM | N#Cc1cc(-c2ccc(N)nc2)ccc1COc1cc(N)nc2[nH]nnc12 [Example 311, 2-(((5-amino-3H-[1,2,3]triazolo[4,5-b]pyridin-7-yl)oxy)methyl)-5-(6-aminopyridin-3-yl)benzonitrile]
30 | 101 to 999 nM | Cc1cn(-c2ccc(COc3cc(N)nc4[nH]nnc34)c(OC(F)(F)F)c2)cn1 [Example 273, 7-((4-(4-methyl-1H-imidazol-1-yl)-2-(trifluoromethoxy)benzyl)oxy)-3H-[1,2,3] triazolo[4,5-b]pyridin-5-amine]
31 | 101 to 999 nM | CN1CCN(c2ccc(-c3ccc(F)c(COc4cc(N)nc5[nH]nnc45)c3)cn2)CC1 [Example 346, 7-((2-fluoro-5-(6-(4-methylpiperazin-1-yl)pyridin-3-yl)benzyl)oxy)-3H-[1,2,3]triazolo [4,5-b]pyridin-5-amine]
32 | 1 to 100 nM | NC(=O)c1ccc(-c2cc(F)c(COc3cc(N)nc4[nH]nnc34)c(F)c2)cn1 [Example 341, 5-(4-(((5-amino-3H-[1,2,3]triazolo[4,5-b]pyridin-7-yl)oxy)methyl)-3,5-difluorophenyl) picolinamide]
33 | 1 to 100 nM | Nc1cc(OCc2ccc(-c3cccc(S(N)(=O)=O)c3)cc2OC(F)(F)F)c2nn[nH]c2n1 [Example 301, 4′-(((5-amino-3H-[1,2,3]triazolo[4,5-b]pyridin-7-yl)oxy)methyl)-3′-(trifluoromethoxy)-[1,1′-biphenyl]-3-sulfonamide]
34 | 1 to 100 nM | N#Cc1cc(-c2ccc(N3CCCC3)nc2)ccc1COc1cc(N)nc2[nH]nnc12 [Example 326, 2-(((5-amino-3H-[1,2,3]triazolo[4,5-b]pyridin-7-yl)oxy)methyl)-5-(6-(pyrrolidin-1-yl)pyridin-3-yl)benzonitrile]
